System: CD5+/CD19+ cells of PBMCs from primary chronic lymphocytic leukemia (CLL) patients
Experiment: Human CLL apoptosis assay (AnnexinV+ cells by flow cytometry)
Type: cell-based
Details: no HS-5 co-culture
Procedure: Peripheral blood mononuclear cells (PBMCs) were isolated from primary chronic lymphocytic leukemia (CLL) patients and cultured for 3-5 hours in Lymphocyte Growth Medium (LGM, RPMI 1640, 1 mM Sodium Pyruvate, 10 mM HEPES, pH 7.4, 100 U/mL Penicillin/100 μg/mL Streptomycin, 55 μM β-Mercaptoethanl, 2 mM GlutaMAX, and 10% FBS) at 37° C. with 5% CO2. Cells were then centrifuged at room temperature for 10 minutes and resuspended in an appropriate volume of LGM for plating (maximum cell density=3.12×10^6/ml). Final assay wells were set up in U-bottom 96-well tissue culture plates with HS-5 co-culture (plates were coated with 3×10^4 HS-5 cells in 100 μl overnight at 37° C. prior to the assay) or no co-culture.
Cell suspensions (80 μL, 2.5×10^5-9.4×10^4) were added to the plate and incubated for 1 hour prior to stimulation with αIgM/αIgG (7.8 μg/well) and αCD40 (4 μg/well). Cells were incubated with compounds for about 66 hours at 37° C. After incubation, the cells were transferred to deeper plates and washed once with 500 μL of 1× PBS^+/+. Cells were resuspended in Invitrogen's aqua Live/Dead reagent according to manufacturer's directions and incubated 30 minutes on ice. Aqua Live/Dead was quenched with an equal volume of PBS^+/+ with 4% FBS (FACS buffer). Cells were centrifuged and labeled with αCD5-PE, αCD19-BV421 and AnnexinV-APC in a total volume of 85 μL and incubated 30 minutes on ice. After labeling, cells were rinsed twice in FACS buffer and then fixed with BD Fixation buffer for 30 minutes on ice. Cells were rinsed twice with FACS buffer and analyzed.
For the apoptosis analysis, flow cytometric sampling of 5000-20,000 total events were collected on a BD FACS Canto II instrument using a high throughput screen (HTS) autosampler for analysis of apoptosis. CD5^+/CD19^+ cells were identified and subsequently gated for AnnexinV^+/LiveDead and AnnexinV^+/LiveDead^+ populations.
Flow cytometric data were extracted to a flow cytometry standard (fcs) file. Average percentages of AnnexinV^+ cells were determined for the positive control and negative wells (no compound). The percentage of AnnexinV^+ cells represented the percentage or levels of apoptosis. Similar results were obtained for CLL cells with HS-5 co-culture.

## c1cn2cc(-c3ccc4cn[nH]c4c3)nc(Nc3ccc(N4CCOCC4)cc3)c2n1 [Compound A1, 6-(1H-indazol-6-yl)-N-(4-morpholinophenyl)imidazo[1,2-a]pyrazin-8-amine]
Sample 1, 30 nM Compound A1, 0 nM Compound B1
  Percentage of the AnnexinV^+ cells: 12%
Sample 1, 100 nM Compound A1, 0 nM Compound B1
  Percentage of the AnnexinV^+ cells: 12%
Sample 1, 300 nM Compound A1, 0 nM Compound B1
  Percentage of the AnnexinV^+ cells: 16%
Sample 2, 30 nM Compound A1, 0 nM Compound B1
  Percentage of the AnnexinV^+ cells: 9%
Sample 2, 100 nM Compound A1, 0 nM Compound B1
  Percentage of the AnnexinV^+ cells: 12%
Sample 2, 300 nM Compound A1, 0 nM Compound B1
  Percentage of the AnnexinV^+ cells: 20%
Sample 3, 30 nM Compound A1, 0 nM Compound B1
  Percentage of the AnnexinV^+ cells: 13%
Sample 3, 100 nM Compound A1, 0 nM Compound B1
  Percentage of the AnnexinV^+ cells: 15%
Sample 3, 300 nM Compound A1, 0 nM Compound B1
  Percentage of the AnnexinV^+ cells: 18%

## CC1(C)CCC(CN2CCN(c3ccc(C(=O)NS(=O)(=O)c4ccc(NCC5CCOCC5)c([N+](=O)[O-])c4)c(Oc4cnc5[nH]ccc5c4)c3)CC2)=C(c2ccc(Cl)cc2)C1 [Compound B1, (4-(4-{[2-(4-chlorophenyl)-4,4-dimethylcyclohex-1-en-1-yl]methyl}piperazin-1-yl)-N-({3-nitro-4-[(tetrahydro-2H-pyran-4-yl-methyl)amino]phenyl}sulfonyl)-2-(1H-pyrrolo[2,3-b]pyridin-5-yl-oxy)benzamide)]
Sample 1, 0 nM Compound A1, 0.8 nM Compound B1
  Percentage of the AnnexinV^+ cells: 13%
Sample 1, 0 nM Compound A1, 1.6 nM Compound B1
  Percentage of the AnnexinV^+ cells: 15%
Sample 1, 0 nM Compound A1, 3.1 nM Compound B1
  Percentage of the AnnexinV^+ cells: 15%
Sample 1, 0 nM Compound A1, 6.3 nM Compound B1
  Percentage of the AnnexinV^+ cells: 16%
Sample 1, 0 nM Compound A1, 12.5 nM Compound B1
  Percentage of the AnnexinV^+ cells: 19%
Sample 1, 0 nM Compound A1, 25 nM Compound B1
  Percentage of the AnnexinV^+ cells: 24%
Sample 1, 0 nM Compound A1, 50 nM Compound B1
  Percentage of the AnnexinV^+ cells: 31%
Sample 1, 0 nM Compound A1, 100 nM Compound B1
  Percentage of the AnnexinV^+ cells: 36%
Sample 1, 0 nM Compound A1, 200 nM Compound B1
  Percentage of the AnnexinV^+ cells: 46%
Sample 2, 0 nM Compound A1, 0.8 nM Compound B1
  Percentage of the AnnexinV^+ cells: 10%
Sample 2, 0 nM Compound A1, 1.6 nM Compound B1
  Percentage of the AnnexinV^+ cells: 18%
Sample 2, 0 nM Compound A1, 3.1 nM Compound B1
  Percentage of the AnnexinV^+ cells: 35%
Sample 2, 0 nM Compound A1, 6.3 nM Compound B1
  Percentage of the AnnexinV^+ cells: 55%
Sample 2, 0 nM Compound A1, 12.5 nM Compound B1
  Percentage of the AnnexinV^+ cells: 76%
Sample 2, 0 nM Compound A1, 25 nM Compound B1
  Percentage of the AnnexinV^+ cells: 89%
Sample 2, 0 nM Compound A1, 50 nM Compound B1
  Percentage of the AnnexinV^+ cells: 93%
Sample 2, 0 nM Compound A1, 100 nM Compound B1
  Percentage of the AnnexinV^+ cells: 95%
Sample 2, 0 nM Compound A1, 200 nM Compound B1
  Percentage of the AnnexinV^+ cells: 97%
Sample 3, 0 nM Compound A1, 0.8 nM Compound B1
  Percentage of the AnnexinV^+ cells: 16%
Sample 3, 0 nM Compound A1, 1.6 nM Compound B1
  Percentage of the AnnexinV^+ cells: 21%
Sample 3, 0 nM Compound A1, 3.1 nM Compound B1
  Percentage of the AnnexinV^+ cells: 33%
Sample 3, 0 nM Compound A1, 6.3 nM Compound B1
  Percentage of the AnnexinV^+ cells: 50%
Sample 3, 0 nM Compound A1, 12.5 nM Compound B1
  Percentage of the AnnexinV^+ cells: 69%
Sample 3, 0 nM Compound A1, 25 nM Compound B1
  Percentage of the AnnexinV^+ cells: 89%
Sample 3, 0 nM Compound A1, 50 nM Compound B1
  Percentage of the AnnexinV^+ cells: 97%
Sample 3, 0 nM Compound A1, 100 nM Compound B1
  Percentage of the AnnexinV^+ cells: 99%
Sample 3, 0 nM Compound A1, 200 nM Compound B1
  Percentage of the AnnexinV^+ cells: 100%

Source: US20180117052A1, “COMBINATION THERAPIES FOR TREATING CANCERS” (Gilead Scienes, Inc., priority 2015, published 2018)
